# From US8198217B2, “Composition for weeding” (Kumiai Chemical Industry Co., Ltd., priority 2007, dated 2012)
# Assays:
# corn (ZEAMX) = test: Weed control effect test by stems-and-leaves treatment: phytotoxicity to corn; format: in vivo; conditions: 30th day from treatment
# Protocol: A plastic pot of 1/2000 are area was each filled with a dry-field soil where the respective seeds of corn (ZEAMX), pitted morningglory (IPOLA), velvet leaf (ABUTH) and lamb's-quarters (CHEAL) were sowed and tuberous roots of yellow nutsedge (CYPES) were buried followed by pooling of water from the bottom part of the pot. These seeds and tuberous roots were grown in a greenhouse. […] Thereafter, growing was continued in the glasshouse to record the weed control effect and the extent of phytotoxicity on the 30th day from the treatment as indexes according to the criteria given in Table 1. The dosages are given in terms of the amount of the active ingredients per hectare (ha).
# [1] = tested on: pitted morningglory (IPOLA); test: Weed control effect test by stems-and-leaves treatment; format: in vivo; conditions: 30th day from treatment
# Protocol: (§1) A plastic pot of 1/2000 are area was each filled with a dry-field soil where the respective seeds of corn (ZEAMX), pitted morningglory (IPOLA), velvet leaf (ABUTH) and lamb's-quarters (CHEAL) were sowed and tuberous roots of yellow nutsedge (CYPES) were buried followed by pooling of water from the bottom part of the pot. These seeds and tuberous roots were grown in a greenhouse. On the day when the pitted morningglory had reached its 4 leaves stage, a stems-and-leaves treatment was undertaken on the whole plant bodies with agents each prepared by dilution of a specified amount of the water-dispersible granules prepared in the same manner as in Example 3, 4 and 5 with water, respectively. Thereafter, growing was continued in the glasshouse to record the weed control effect and the extent of phytotoxicity on the 30th day from the treatment as indexes according to the criteria given in Table 1. The dosages are given in terms of the amount of the active ingredients per hectare (ha).
# lamb's-quarters (CHEAL) = test: as above; format: in vivo; conditions: 30th day from treatment
# Protocol: as §1
# velvet leaf (ABUTH) = test: as above; format: in vivo; conditions: 30th day from treatment
# Protocol: as §1
# yellow nutsedge (CYPES) = test: as above; format: in vivo; conditions: 30th day from treatment
# Protocol: as §1
# [2] = tested on: tidalmarsh flatsedge (CYPSE); test: Weed control effect test on paddy fields; format: in vivo, Cyperus serotinus; conditions: applied onto water surface, 25th day from treatment
# Description: (§2) A plastic pot of 1/20000 are area was each filled with a paddy field soil which was manured and shuffled followed by sowing of the respective seeds of early watergrass (ECHOR), heartshape false pickerelweed (MOOVA), rock's bulrush (SCIJO) and marsh dayflower (ANEKE) and burying of tuberous roots of tidalmarsh flatsedge (CYPSE) followed by pooling of water in a water depth of 1 cm. And, paddy rice plants (Or) at the two-leaves stage were transplanted to the same pot and grown in a greenhouse. Thereafter, on the day when the early watergrass had reached its 2.5 leaves stage, pooling of water was undertaken in order to make the water depth to 3 cm and agents each prepared by dilution of a specified amount of the wettable powder prepared in the same manner as in Example 1 and 2 with water was applied onto the water surface, respectively. Then, growing was continued keeping the pooling water depth of 3 cm to record the weed control effect and the extent of phytotoxicity on the 25th day from the treatment as indexes according to the criteria given in Table 1. The dosages are given in terms of the amount of the active ingredients per 10 ares area.
# marsh dayflower (ANEKE) = test: Weed control effect test on paddy fields; format: in vivo; conditions: applied onto water surface, 25th day from treatment
# Description: as §2
# paddy rice plants (Or) = test: Weed control effect test on paddy fields: phytotoxicity to paddy rice; format: in vivo; conditions: applied onto water surface, 25th day from treatment
# Description: as §2
# [3] = tested on: heartshape false pickerelweed (MOOVA); test: Weed control effect test on paddy fields; format: in vivo, Monochoria vaginalis; conditions: applied onto water surface, 25th day from treatment
# Description: as §2
# rock's bulrush (SCIJO) = test: Weed control effect test on paddy fields; format: in vivo, Scirpus juncoides; conditions: applied onto water surface, 25th day from treatment
# Description: as §2
# early watergrass (ECHOR) = test: Weed control effect test on paddy fields; format: in vivo, Echinochloa oryzicola; conditions: applied onto water surface, 25th day from treatment
# Description: as §2
compound,measurement,setting,value
"COCc1cccc(C(O)c2nc(OC)cc(OC)n2)c1NS(=O)(=O)C(F)F (stereo not shown) [Compound A-1, 2-[(4,6-dimethoxypyrimidin-2-yl)hydroxymethyl]-6-methoxymethyl-N-difluoromethanesulfonylanilide]","extent of phytotoxicity index, ZEAMX",corn (ZEAMX); 10 g a.i./ha,0 (less than 5% growth inhibition)
same,"weed control effect index, IPOLA",[1]; 10 g a.i./ha,6 (not less than 55% but less than 65% growth inhibition)
same,"weed control effect index, CHEAL",lamb's-quarters (CHEAL); 10 g a.i./ha,1 (not less than 5% but less than 15% growth inhibition)
same,"weed control effect index, ABUTH",velvet leaf (ABUTH); 10 g a.i./ha,5 (not less than 45% but less than 55% growth inhibition)
same,"weed control effect index, CYPES",yellow nutsedge (CYPES); 10 g a.i./ha,7 (not less than 65% but less than 75% growth inhibition)
same,"weed control effect index, CYPSE",[2]; 3 g a.i./10a,8 (not less than 75% but less than 85% growth inhibition)
same,"weed control effect index, ANEKE",marsh dayflower (ANEKE); 3 g a.i./10a,2 (not less than 15% but less than 25% growth inhibition)
same,"extent of phytotoxicity index, OR",paddy rice plants (Or); 3 g a.i./10a,0 (less than 5% growth inhibition)
same,"weed control effect index, MOOVA",[3]; 3 g a.i./10a,7 (not less than 65% but less than 75% growth inhibition)
same,"weed control effect index, SCIJO",rock's bulrush (SCIJO); 3 g a.i./10a,8 (not less than 75% but less than 85% growth inhibition)
same,"weed control effect index, ECHOR",early watergrass (ECHOR); 3 g a.i./10a,7 (not less than 65% but less than 75% growth inhibition)
"CCCc1ccc2nc(Cl)c(S(=O)(=O)NC(=O)Nc3nc(OC)cc(OC)n3)n2n1 [TH-547, 1-(2-chloro-6-propylimidazo[1,2-b]pyridazin-3-ylsulfonyl)-3-(4,6-dimethoxypyrimidin-2-yl)urea]","weed control effect index, CYPSE",[2]; 7 g a.i./10a,6 (not less than 55% but less than 65% growth inhibition)
same,"weed control effect index, ANEKE",marsh dayflower (ANEKE); 7 g a.i./10a,4 (not less than 35% but less than 45% growth inhibition)
same,"extent of phytotoxicity index, OR",paddy rice plants (Or); 7 g a.i./10a,0 (less than 5% growth inhibition)
same,"weed control effect index, MOOVA",[3]; 7 g a.i./10a,7 (not less than 65% but less than 75% growth inhibition)
same,"weed control effect index, SCIJO",rock's bulrush (SCIJO); 7 g a.i./10a,6 (not less than 55% but less than 65% growth inhibition)
same,"weed control effect index, ECHOR",early watergrass (ECHOR); 7 g a.i./10a,7 (not less than 65% but less than 75% growth inhibition)
CCNc1nc(Cl)nc(NC(C)C)n1 [atrazine],"extent of phytotoxicity index, ZEAMX",corn (ZEAMX); 1000 g a.i./ha,0 (less than 5% growth inhibition)
same,"weed control effect index, IPOLA",[1]; 1000 g a.i./ha,3 (not less than 25% but less than 35% growth inhibition)
same,"weed control effect index, CHEAL",lamb's-quarters (CHEAL); 1000 g a.i./ha,8 (not less than 75% but less than 85% growth inhibition)
same,"weed control effect index, ABUTH",velvet leaf (ABUTH); 1000 g a.i./ha,3 (not less than 25% but less than 35% growth inhibition)
same,"weed control effect index, CYPES",yellow nutsedge (CYPES); 1000 g a.i./ha,3 (not less than 25% but less than 35% growth inhibition)
COC(=O)CSc1cc(/N=c2\sc(=O)n3n2CCCC3)c(F)cc1Cl [fluthiacet-methyl],"extent of phytotoxicity index, ZEAMX",corn (ZEAMX); 5 g a.i./ha,0 (less than 5% growth inhibition)
same,"weed control effect index, IPOLA",[1]; 5 g a.i./ha,3 (not less than 25% but less than 35% growth inhibition)
same,"weed control effect index, CHEAL",lamb's-quarters (CHEAL); 5 g a.i./ha,8 (not less than 75% but less than 85% growth inhibition)
same,"weed control effect index, ABUTH",velvet leaf (ABUTH); 5 g a.i./ha,9 (not less than 85% but less than 95% growth inhibition)
same,"weed control effect index, CYPES",yellow nutsedge (CYPES); 5 g a.i./ha,2 (not less than 15% but less than 25% growth inhibition)
CCC1(CC2(c3cccc(Cl)c3)CO2)C(=O)c2ccccc2C1=O (stereo not shown) [indanofan],"weed control effect index, CYPSE",[2]; 15 g a.i./10a,1 (not less than 5% but less than 15% growth inhibition)
same,"weed control effect index, ANEKE",marsh dayflower (ANEKE); 15 g a.i./10a,5 (not less than 45% but less than 55% growth inhibition)
same,"weed control effect index, MOOVA",[3]; 15 g a.i./10a,5 (not less than 45% but less than 55% growth inhibition)
same,"weed control effect index, SCIJO",rock's bulrush (SCIJO); 15 g a.i./10a,3 (not less than 25% but less than 35% growth inhibition)
same,"weed control effect index, ECHOR",early watergrass (ECHOR); 15 g a.i./10a,6 (not less than 55% but less than 65% growth inhibition)
COc1cc(OC)nc(NC(=O)NS(=O)(=O)c2ncccc2C(=O)N(C)C)n1 [nicosulfuron],"extent of phytotoxicity index, ZEAMX",corn (ZEAMX); 35 g a.i./ha,0 (less than 5% growth inhibition)
same,"weed control effect index, IPOLA",[1]; 35 g a.i./ha,3 (not less than 25% but less than 35% growth inhibition)
same,"weed control effect index, CHEAL",lamb's-quarters (CHEAL); 35 g a.i./ha,8 (not less than 75% but less than 85% growth inhibition)
same,"weed control effect index, ABUTH",velvet leaf (ABUTH); 35 g a.i./ha,2 (not less than 15% but less than 25% growth inhibition)
same,"weed control effect index, CYPES",yellow nutsedge (CYPES); 35 g a.i./ha,4 (not less than 35% but less than 45% growth inhibition)
